Data taken from ChEMBL document CHEMBL1649501, “Integration of pharmacokinetic and pharmacodynamic indices of orbifloxacin in beagle dogs after a single intravenous and intramuscular administration” (Antimicrob Agents Chemother, 2009).
In brackets after ≈: the same amount, converted by molar mass.

What was measured:
[1] = Ratio of AUC (0 to 24 hrs) to MIC for bactericidal action in Beagle dog infected with Staphylococcus intermedius clinical isolate at 2.5 mg/kg, im; assay type: functional; conditions: route intramuscular
[2] = Ratio of AUC (0 to 24 hrs) to MIC for bacterial elimination in Beagle dog infected with Staphylococcus intermedius clinical isolate at 2.5 mg/kg, im; assay type: functional; conditions: route intramuscular
[3] = Tmax in Beagle dog at 2.5 mg/kg, im; assay type: ADME, organism-based, Canis lupus familiaris; design: dose 2.5 mg/kg, route intramuscular; conditions: in vivo
[4] = Cmax in Beagle dog at 2.5 mg/kg, im; assay type: ADME, organism-based, Canis lupus familiaris; design: dose 2.5 mg/kg, route intramuscular; conditions: in vivo
[5] = AUC (0 to 24 hrs) in Beagle dog at 2.5 mg/kg, iv; assay type: ADME, organism-based, Canis lupus familiaris; design: time < 24 hr, dose 2.5 mg/kg, route intravenous; conditions: plasma
[6] = AUC (0 to 24 hrs) in Beagle dog at 2.5 mg/kg, im; assay type: ADME, organism-based, Canis lupus familiaris; design: time < 24 hr, dose 2.5 mg/kg, route intramuscular; conditions: plasma
[7] = AUC (0 to infinity) in Beagle dog at 2.5 mg/kg, iv; assay type: ADME, organism-based, Canis lupus familiaris; design: time infinity, dose 2.5 mg/kg, route intravenous; conditions: plasma
[8] = AUC (0 to infinity) in Beagle dog at 2.5 mg/kg, im; assay type: ADME, organism-based, Canis lupus familiaris; design: time infinity, dose 2.5 mg/kg, route intramuscular; conditions: plasma
[9] = Elimination rate constant in Beagle dog at 2.5 mg/kg, iv; assay type: ADME, organism-based, Canis lupus familiaris; design: dose 2.5 mg/kg, route intravenous; conditions: in vivo
[10] = Elimination rate constant in Beagle dog at 2.5 mg/kg, im; assay type: ADME, organism-based, Canis lupus familiaris; design: dose 2.5 mg/kg, route intramuscular; conditions: in vivo
[11] = Terminal half life in Beagle dog at 2.5 mg/kg, iv; assay type: ADME, organism-based, Canis lupus familiaris; design: dose 2.5 mg/kg, route intravenous; conditions: in vivo, read-out: beta t1/2 (converted)
[12] = Terminal half life in Beagle dog at 2.5 mg/kg, im; assay type: ADME, organism-based, Canis lupus familiaris; design: dose 2.5 mg/kg, route intramuscular; conditions: in vivo, read-out: beta t1/2 (converted)
[13] = Mean residence time (0 to 24 hrs) in Beagle dog at 2.5 mg/kg, iv; assay type: ADME, organism-based, Canis lupus familiaris; design: dose 2.5 mg/kg, route intravenous; conditions: in vivo
[14] = Mean residence time (0 to 24 hrs) in Beagle dog at 2.5 mg/kg, im; assay type: ADME, organism-based, Canis lupus familiaris; design: dose 2.5 mg/kg, route intramuscular; conditions: in vivo
[15] = Mean residence time (0 to infinity) in Beagle dog at 2.5 mg/kg, iv; assay type: ADME, organism-based, Canis lupus familiaris; design: dose 2.5 mg/kg, route intravenous; conditions: in vivo
[16] = Mean residence time (0 to infinity) in Beagle dog at 2.5 mg/kg, im; assay type: ADME, organism-based, Canis lupus familiaris; design: dose 2.5 mg/kg, route intramuscular; conditions: in vivo
[17] = Apparent volume of distribution in Beagle dog at 2.5 mg/kg, iv; assay type: ADME, organism-based, Canis lupus familiaris; design: dose 2.5 mg/kg, route intravenous; conditions: in vivo, read-out: Vz
Canis familiaris = test: Mean absorption time in Beagle dog at 2.5 mg/kg, im; assay type: ADME, organism-based, Canis lupus familiaris; design: dose 2.5 mg/kg, route intramuscular; conditions: in vivo
[18] = Volume of distribution at steady state in Beagle dog at 2.5 mg/kg, iv; assay type: ADME, organism-based, Canis lupus familiaris; design: dose 2.5 mg/kg, route intravenous; conditions: in vivo
[19] = Clearance in Beagle dog at 2.5 mg/kg, iv; assay type: ADME, organism-based, Canis lupus familiaris; design: dose 2.5 mg/kg, route intravenous; conditions: in vivo
[20] = Bioavailability in Beagle dog at 2.5 mg/kg, im; assay type: ADME, organism-based, Canis lupus familiaris; conditions: in vivo
Escherichia coli [21] = test: Antibacterial activity against Escherichia coli by broth microdilution method; assay type: functional
Staphylococcus aureus [22] = test: Antibacterial activity against Staphylococcus aureus by broth microdilution method; assay type: functional
[23] = tested on: Staphylococcus intermedius; test: Antibacterial activity against Staphylococcus intermedius by broth microdilution method; assay type: functional
Staphylococcus aureus [24] = test: Antibacterial activity against Staphylococcus aureus ATCC 29213 by broth microdilution method; assay type: functional
Proteus mirabilis [25] = test: Antibacterial activity against Proteus mirabilis by broth microdilution method; assay type: functional
[26] = Ratio of AUC (0 to 24 hrs) to MIC in Beagle dog infected with Escherichia coli at 2.5 mg/kg, iv; assay type: functional
[27] = Ratio of AUC (0 to 24 hrs) to MIC in Beagle dog infected with Staphylococcus aureus at 2.5 mg/kg, iv; assay type: functional
[28] = Ratio of AUC (0 to 24 hrs) to MIC in Beagle dog infected with Staphylococcus intermedius at 2.5 mg/kg, iv; assay type: functional
[29] = Ratio of AUC (0 to 24 hrs) to MIC in Beagle dog infected with Proteus mirabilis at 2.5 mg/kg, iv; assay type: functional
[30] = Ratio of AUC (0 to 24 hrs) to MIC in Beagle dog infected with Escherichia coli at 2.5 mg/kg, im; assay type: functional; conditions: route intramuscular
[31] = Ratio of AUC (0 to 24 hrs) to MIC in Beagle dog infected with Staphylococcus aureus at 2.5 mg/kg, im; assay type: functional; conditions: route intramuscular
[32] = Ratio of AUC (0 to 24 hrs) to MIC in Beagle dog infected with Staphylococcus intermedius at 2.5 mg/kg, im; assay type: functional; conditions: route intramuscular
[33] = Ratio of AUC (0 to 24 hrs) to MIC in Beagle dog infected with Proteus mirabilis at 2.5 mg/kg, im; assay type: functional; conditions: route intramuscular
[34] = T>MIC in Beagle dog infected with Escherichia coli at 2.5 mg/kg, iv; assay type: functional
[35] = T>MIC in Beagle dog infected with Staphylococcus aureus at 2.5 mg/kg, iv; assay type: functional
[36] = T>MIC in Beagle dog infected with Staphylococcus intermedius at 2.5 mg/kg, iv; assay type: functional
[37] = T>MIC in Beagle dog infected with Proteus mirabilis at 2.5 mg/kg, iv; assay type: functional
[38] = T>MIC in Beagle dog infected with Escherichia coli at 2.5 mg/kg, im; assay type: functional; conditions: route intramuscular
[39] = T>MIC in Beagle dog infected with Staphylococcus aureus at 2.5 mg/kg, im; assay type: functional; conditions: route intramuscular
[40] = T>MIC in Beagle dog infected with Staphylococcus intermedius at 2.5 mg/kg, im; assay type: functional; conditions: route intramuscular
[41] = T>MIC in Beagle dog infected with Proteus mirabilis at 2.5 mg/kg, im; assay type: functional; conditions: route intramuscular
[42] = Ratio of Cmax to MIC in Beagle dog infected with Escherichia coli at 2.5 mg/kg, im; assay type: functional; conditions: route intramuscular
[43] = Ratio of Cmax to MIC in Beagle dog infected with Staphylococcus aureus at 2.5 mg/kg, im; assay type: functional; conditions: route intramuscular
[44] = Ratio of Cmax to MIC in Beagle dog infected with Staphylococcus intermedius at 2.5 mg/kg, im; assay type: functional; conditions: route intramuscular
[45] = Ratio of Cmax to MIC in Beagle dog infected with Proteus mirabilis at 2.5 mg/kg, im; assay type: functional; conditions: route intramuscular
Escherichia coli [46] = test: Antibacterial activity against Escherichia coli after 30 hrs by broth microdilution method; assay type: functional, organism-based
Staphylococcus aureus [47] = test: Antibacterial activity against Staphylococcus aureus after 30 hrs by broth microdilution method; assay type: functional, organism-based
[48] = tested on: Staphylococcus intermedius; test: Antibacterial activity against Staphylococcus intermedius after 30 hrs by broth microdilution method; assay type: functional, organism-based
Proteus mirabilis [49] = test: Antibacterial activity against Proteus mirabilis after 30 hrs by broth microdilution method; assay type: functional, organism-based
[50] = tested on: Staphylococcus intermedius; test: Antibacterial activity against Staphylococcus intermedius clinical isolate infected in Beagle dog assessed as bacterial load at 2.5 mg/kg, im after 24 hrs; assay type: functional; conditions: route intramuscular
[51] = Ratio of AUC (0 to 24 hrs) to MIC for bacteriostatic action in Beagle dog infected with Staphylococcus intermedius clinical isolate at 2.5 mg/kg, im; assay type: functional; conditions: route intramuscular
[52] = Ratio of AUC (0 to 24 hrs) to MIC50 in Beagle dog infected with Staphylococcus intermedius clinical isolate at 2.5 mg/kg, im; assay type: functional; conditions: route intramuscular

With `C[C@@H]1CN(c2c(F)c(F)c3c(=O)c(C(=O)O)cn(C4CC4)c3c2F)C[C@H](C)N1` [ORBIFLOXACIN] the RatioAUC/MIC [1] was 31.8, the RatioAUC/MIC [2] was 40 and the Tmax [3] was 1.15 h. It also gave a Cmax [4] of 1150 ng/mL, an AUC(0-t) at 24 h [5] of 8070 ng·h/mL and an AUC(0-t) at 24 h [6] of 8370 ng·h/mL. For the same molecule, the AUC(0-inf) [7] was 8210 ng·h/mL, the AUC(0-inf) [8] was 8490 ng·h/mL and the k el [9] was 4.72e-05 s⁻¹. It also gave a k el [10] of 4.72e-05 s⁻¹, a half-life [11] of 4.23 h and a half-life [12] of 3.95 h. It also gave an MRT last [13] of 4.71 h, an MRT last [14] of 5.31 h and an MRT inf [15] of 5.13 h. It also gave an MRT inf [16] of 5.69 h, a Vd [17] of 1.95 L/kg and an MAT (Canis familiaris) of 0.51 h. For the same molecule, the Vd [18] was 1.61 L/kg, the clearance [19] was 5.17 mL/min/kg and the bioavailability [20] was 100%. The MIC (Escherichia coli [21]) was 0.06 µg/mL (≈ 0.152 µM), the MIC (Staphylococcus aureus [22]) was 0.25 µg/mL (≈ 0.632 µM) and the MIC [23] was 0.25 µg/mL (≈ 0.632 µM). It also gave an MIC (Staphylococcus aureus [24]) of 0.5 µg/mL (≈ 1.26 µM), an MIC (Proteus mirabilis [25]) of 0.5 µg/mL (≈ 1.26 µM) and a RatioAUC/MIC [26] of 134.6. It also gave a RatioAUC/MIC [27] of 32.3, a RatioAUC/MIC [28] of 32.3 and a RatioAUC/MIC [29] of 16.1. It also gave a RatioAUC/MIC [30] of 129.8, a RatioAUC/MIC [31] of 31.1 and a RatioAUC/MIC [32] of 31.1. For the same molecule, the RatioAUC/MIC [33] was 15.5, the “T>MIC” value [34] was 21.1 h and the “T>MIC” value [35] was 8.75 h. The “T>MIC” value [36] was 8.75 h, the “T>MIC” value [37] was 5.6 h and the “T>MIC” value [38] was 21.3 h. For the same molecule, the “T>MIC” value [39] was 9.15 h, the “T>MIC” value [40] was 9.15 h and the “T>MIC” value [41] was 6.5 h. The Ratio [42] was 19.1, the Ratio [43] was 4.61 and the Ratio [44] was 4.61. The Ratio [45] was 2.3, the Activity (Escherichia coli [46]) was “Dose-dependent effect” and the Activity (Staphylococcus aureus [47]) was “Dose-dependent effect”. For the same molecule, the Activity [48] was “Dose-dependent effect”, the Activity (Proteus mirabilis [49]) was “Dose-dependent effect” and the CFU/ml [50] was 2.06. It also gave a RatioAUC/MIC [51] of 26.7 and a Ratio [52] of 29.
